The nature of this series: clinical. The settings on record: human, in vivo, topical or ocular, 46.1 mg.

With `CCN(CC)CC(=O)Nc1c(C)cccc1C` [LIDOCAINE], the AUC (commonly the area under the concentration-time curve, a measure of exposure) (AUC(0 to inf)) was 61.3 ng·h/mL. Further, the concentration (Cmax) peaked (Cmax) at 27.2 ng/mL. For the same molecule, the Tmax (as a rule, the time from dosing to the highest level) (Tmax) is 45 min.

The values above are taken from ChEMBL document CHEMBL3832085.
